US10022392B2, “Compositions based on methyl cyclodextrins for the treatment and/or prevention of diseases by increasing the HDL cholesterol level” (ROQUETTE FRERES, priority 2013, dated 2018)

Experiments:
ABCA1 = assay: Expression of the ABCA1 transporter (real-time PCR) in endothelial cells treated with cyclodextrins; format: cell-based, bovine; conditions: 1 mM cyclodextrin, 24 hours, ABAEs, compared with control, FIG. 3
Description: (§1) Cells: The endothelial cells were adult bovine aortic endothelial cells (ABAEs).
(§2) The cells were then cultured in this radioactive medium for 36 hours in order to allow them to incorporate the radioactive cholesterol. The medium was then removed and the cells were rinsed twice with warm DMEM containing 0.1% of bovine serum albumin (BSA). The cells were then cultured in DMEM/1 ng/ml bFGF containing 1 mM of each cyclodextrin for 24 hours (1.4 ml/well).
(§3) After 24 hours of treatment with each cyclodextrin, the cells were rinsed twice in cold PBS (8 g/l NaCl, 0.2 g/l KCl, 0.2 g/l KH2PO4, 2.87 g/l NA2HPO4 (12H2O), pH 7.4) and lyzed using 500 μl of RLT lysis buffer […]. Three wells were used and pooled for each condition. […] At the end of this purification step, the mRNA concentration was estimated by virtue of the absorbance values obtained at 260, 280 and 320 nm. […]
(§4) The amplification was carried out over the course of 40 cycles with a hybridization temperature of 60° C. using the Biorad CFX96 thermocycler. For each pair of primers, the amplification specificity was verified by producing melting curves and the efficiency was determined by producing dilution curves. The expression levels measured were then normalized on the expression levels of β-actin and cyclophillin B using the ΔΔCt method. […]

[1] = tested on: adult bovine aortic endothelial cells (ABAEs); assay: Cholesterol efflux: 3H-cholesterol captured by the cyclodextrins from aortic endothelial cells; format: cell-based; conditions: 1 mM cyclodextrin, 2 hours, FIG. 2
Description: as §1
Cyclodextrins: the cyclodextrins used were the following: a non-methylated β-cyclodextrin, hereinafter denoted “β-CD”, a methyl-β-cyclodextrin having an MS of 0.2, hereinafter denoted “MβCD-0.2”, a methyl-β-cyclodextrin having an MS of 0.67 (KLEPTOSE® CRYSMEB, ROQUETTE FRERES), hereinafter denoted “MβCD-0.67”, a methyl-β-cyclodextrin having an MS of 1.8 (RAMEB®, CYCLOLAB), hereinafter denoted “MβCD-1.8”.
0.5 μCi/ml of 3H-cholesterol was incorporated into serum (10% horse serum/calf serum (HS/CS)) for 6 hours at 37° C. for the purpose of obtaining a culture medium enriched with radioactive cholesterol. After this incorporation, the culture medium was finalized by incorporation of DMEM (Dulbecco's Modified Eagle's medium) supplemented with 10% HS, 10% CS, 1 ng/ml bFGF (basic fibroblast growth factor), 2 mM glutamine and 50 μg/ml gentamicin. […]
Two hours after the beginning of the incubation in the presence of each cyclodextrin, 500 μl of medium were removed and the radioactive cholesterol captured by the cyclodextrin was assayed by means of a scintillation counter (Tri-carb 2100TR). The radioactivity was measured in disintegrations per minute (DPM). The capacity of each cyclodextrin to capture cellular cholesterol was then estimated by performing the following calculation: ((1.4 ml/0.5 ml)×DPM measured). […]

ABCG1 = assay: Expression of the ABCG1 transporter (real-time PCR) in endothelial cells treated with cyclodextrins; format: cell-based, bovine; conditions: 1 mM cyclodextrin, 24 hours, ABAEs, compared with control, FIG. 4
Description: as §1, §2, §3, §4

## OC[C@H]1O[C@@H]2O[C@H]3[C@H](O)[C@@H](O)[C@@H](O[C@H]4[C@H](O)[C@@H](O)[C@@H](O[C@H]5[C@H](O)[C@@H](O)[C@@H](O[C@H]6[C@H](O)[C@@H](O)[C@@H](O[C@H]7[C@H](O)[C@@H](O)[C@@H](O[C@H]8[C@H](O)[C@@H](O)[C@@H](O[C@H]1[C@H](O)[C@H]2O)O[C@@H]8CO)O[C@@H]7CO)O[C@@H]6CO)O[C@@H]5CO)O[C@@H]4CO)O[C@@H]3CO [βCD, β-cyclodextrin]
ABCA1
  ABCA1 receptor expression (mRNA): strongly decreasing
[1]
  Cholesterol efflux (radioactive cholesterol captured by the cyclodextrin): rapid and considerable efflux
ABCG1
  ABCG1 receptor expression (mRNA): strongly decreasing
